Laboratory results published in ChEMBL document CHEMBL5380816, “Inclusion of Nitrofurantoin into the Realm of Cancer Chemotherapy via Biology-Oriented Synthesis and Drug Repurposing” (J Med Chem, 2023).
Calls of active or inactive are those of the source. The rule behind the calls is not given here.

Legend:
MCF7 [1] = assay: Anticancer activity against human MCF7 cells assessed as round cells incubated at 0.097uM for 72 hrs by phase contrast inverted microscopic analysis; type: functional, cell-based
HepG2 [2] = assay: Anticancer activity against human HepG2 cells assessed as absence of normal spindle shape incubated at 0.097uM for 72 hrs by phase contrast inverted microscopic analysis; type: functional, cell-based
Caco-2 [3] = assay: Induction of apoptosis in human Caco-2 cells assessed as viable cells incubated at 0.097 uM for 72 hrs by annexin V-FITC based propidium iodide dual staining assay (reference value: 99.89%); type: functional; conditions: read-out: Activity
HepG2 [4] = assay: Induction of apoptosis in human HepG2 cells assessed as early apoptotic cells incubated at 0.097 uM for 72 hrs by annexin V-FITC based propidium iodide dual staining assay (reference value: 1.74%); type: functional
HepG2 [5] = assay: Induction of apoptosis in human HepG2 cells assessed as necrotic cells incubated at 0.097 uM for 72 hrs by annexin V-FITC based propidium iodide dual staining assay (reference value: 0.33%); type: functional
MCF7 [6] = assay: Induction of apoptosis in human MCF7 cells assessed as total apoptotic cells incubated at 0.097 uM for 72 hrs by annexin V-FITC based propidium iodide dual staining assay (reference value: 0.04 %); type: functional
HeLa [7] = assay: Induction of apoptosis in human HeLa cells assessed as early apoptotic cells by measuring bright green patch incubated at 0.097 uM for 72 hrs by acridine orange-ethidium bromide dual staining based fluorescence microscopic analysis; type: functional, cell-based
HepG2 [8] = assay: Induction of apoptosis in human HepG2 cells assessed as early apoptotic cells by measuring bright green patch incubated at 0.097 uM for 72 hrs by acridine orange-ethidium bromide dual staining based fluorescence microscopic analysis; type: functional, cell-based
HepG2 [9] = assay: Induction of oxidative stress in human HepG2 cells assessed as cell death by measuring redox alteration fluorescence incubated at 0.098 uM for 72 hrs in presence of dihydro dichlorofluorescein diacetate by DCFH-DA based flow cytometric analysis relative to control; type: functional
Caco-2 [10] = assay: Induction of oxidative stress in human Caco-2 cells assessed as cell death by measuring redox alteration fluorescence incubated at 0.017 uM for 72 hrs in presence of dihydro dichlorofluorescein diacetate by DCFH-DA based flow cytometric analysis relative to control; type: functional
Caco-2 [11] = assay: Anticancer activity against human Caco-2 cells assessed as smaller cells incubated at 0.11 uM for 72 hrs by phase contrast inverted microscopic analysis; type: functional, cell-based
HeLa [12] = assay: Anticancer activity against human HeLa cells assessed as smaller cells incubated at 0.11 uM for 72 hrs by phase contrast inverted microscopic analysis; type: functional, cell-based
HeLa [13] = assay: Anticancer activity against human HeLa cells assessed as losing contact with neighbouring cells incubated at 0.11 uM for 72 hrs by phase contrast inverted microscopic analysis; type: functional, cell-based
HeLa [14] = assay: Anticancer activity against human HeLa cells assessed as cell shrinkage incubated at 0.11 uM for 72 hrs by phase contrast inverted microscopic analysis; type: functional, cell-based
MCF7 [15] = assay: Induction of apoptosis in human MCF7 cells assessed as viable cells incubated at 0.11 uM for 72 hrs by annexin V-FITC based propidium iodide dual staining assay (reference value: 99.9%); type: functional; conditions: read-out: Activity
MCF7 [16] = assay: Induction of apoptosis in human MCF7 cells assessed as necrotic cells incubated at 0.11 uM for 72 hrs by annexin V-FITC based propidium iodide dual staining assay (reference value: 0.03%); type: functional
HeLa [17] = assay: Induction of apoptosis in human HeLa cells assessed as viable cells incubated at 0.11 uM for 72 hrs by annexin V-FITC based propidium iodide dual staining assay (reference value: 97.23%); type: functional; conditions: read-out: Activity
HeLa [18] = assay: Induction of apoptosis in human HeLa cells assessed as necrotic cells incubated at 0.11 uM for 72 hrs by annexin V-FITC based propidium iodide dual staining assay (reference value: 0%); type: functional
MCF7 [19] = assay: Induction of apoptosis in human MCF7 cells assessed as total apoptotic cells incubated at 0.11 uM for 72 hrs by annexin V-FITC based propidium iodide dual staining assay (reference value: 0.04 %); type: functional
HeLa [20] = assay: Induction of apoptosis in human HeLa cells assessed as late apoptotic cells by measuring orange to red patch incubated at 0.11 uM for 72 hrs by acridine orange-ethidium bromide dual staining based fluorescence microscopic analysis; type: functional, cell-based
HepG2 [21] = assay: Induction of apoptosis in human HepG2 cells assessed as late apoptotic cells by measuring orange to red patch incubated at 0.11 uM for 72 hrs by acridine orange-ethidium bromide dual staining based fluorescence microscopic analysis; type: functional, cell-based
dsDNA [22] = assay: Induction of damage in dsDNA (unknown origin) assessed as instantaneous DNA disruption by measuring decrease in fluorescence intensity at 100 uM incubated upto 160 mins by EvaGreen based fluorescence plate reader analysis; type: nucleic-acid assay
dsDNA [23] = assay: Induction of damage in dsDNA (unknown origin) assessed as disrupted by DNA by measuring decrease in fluorescence intensity at 100 uM by EvaGreen based fluorescence plate reader analysis; type: nucleic-acid assay; conditions: time <= 160.0 min, TDE = time-dependent effect
UMUC3 = assay: Anti-clonogenicic activity in human UC3 cells assessed as reduction of colony formation at 5 uM for 24 hrs by crystal violet based staining relative to control; type: functional; design: scale not given: the % may be the effect or the level left
MCF7 [24] = assay: Anticancer activity against human MCF7 cells assessed as losing contact with neighbouring cells incubated at 0.098uM for 72 hrs by phase contrast inverted microscopic analysis; type: functional, cell-based
HeLa [25] = assay: Anticancer activity against human HeLa cells assessed as smaller cells incubated at 0.098uM for 72 hrs by phase contrast inverted microscopic analysis; type: functional, cell-based
HeLa [26] = assay: Induction of apoptosis in human HeLa cells assessed as viable cells incubated at 0.098 uM for 72 hrs by annexin V-FITC based propidium iodide dual staining assay (reference value: 97.23%); type: functional; conditions: read-out: Activity
HepG2 [27] = assay: Induction of apoptosis in human HepG2 cells assessed as early apoptotic cells incubated at 0.098 uM for 72 hrs by annexin V-FITC based propidium iodide dual staining assay (reference value: 1.74%); type: functional
MCF7 [28] = assay: Induction of apoptosis in human MCF7 cells assessed as total apoptotic cells incubated at 0.098 uM for 72 hrs by annexin V-FITC based propidium iodide dual staining assay (reference value: 0.04 %); type: functional
Caco-2 [29] = assay: Induction of apoptosis in human Caco-2 cells assessed as early apoptotic cells by measuring bright green patch incubated at 0.098 uM for 72 hrs by acridine orange-ethidium bromide dual staining based fluorescence microscopic analysis; type: functional, cell-based
HepG2 [30] = assay: Induction of apoptosis in human HepG2 cells assessed as early apoptotic cells by measuring bright green patch incubated at 0.098 uM for 72 hrs by acridine orange-ethidium bromide dual staining based fluorescence microscopic analysis; type: functional, cell-based
Caco-2 [31] = assay: Induction of apoptosis in human Caco-2 cells assessed as early apoptotic cells incubated at 0.017 uM for 72 hrs by annexin V-FITC based propidium iodide dual staining assay (reference value: 0.07%); type: functional
HeLa [32] = assay: Induction of apoptosis in human HeLa cells assessed as early apoptotic cells incubated at 0.017 uM for 72 hrs by annexin V-FITC based propidium iodide dual staining assay (reference value: 2.77%); type: functional
MCF7 [33] = assay: Induction of apoptosis in human MCF7 cells assessed as caspase3/7 activation at 0.017 uM using caspase-glo 3/7 as substrate relative to control; type: functional
HepG2 [34] = assay: Induction of apoptosis in human HepG2 cells assessed as caspase3/7 activation at 0.017 uM using caspase-glo 3/7 as substrate relative to control; type: functional

In the case of `NS(=O)(=O)c1ccc(-n2cc(CN3C(=O)CN(/N=C/c4ccc([N+](=O)[O-])o4)C3=O)nn2)cc1`, the Activity (MCF7 [1]) is reported as “Active”, the Activity (HepG2 [2]) is reported as “Active” and the viability at 0.097 µM (Caco-2 [3]) is reported as 32.8%. For the same compound, the Activity (HepG2 [4]) was 21.02%, the Activity (HepG2 [5]) was 0% and the Activity (MCF7 [6]) was 64.08%. The Activity (HeLa [7]) was “Active”, the Activity (HepG2 [8]) was “Active” and the Activity (HepG2 [9]) was 48.51%. For the same compound, the Activity (Caco-2 [10]) was 22.21%.

With `C#CCN1C(=O)CN(/N=C/c2ccc([N+](=O)[O-])o2)C1=O` the Activity (Caco-2 [11]) was “Active”, the Activity (HeLa [12]) was “Active” and the Activity (HeLa [13]) was “Active”. For the same compound, the Activity (HeLa [14]) was “Active”, the viability at 0.11 µM (MCF7 [15]) was 53.7% and the Activity (MCF7 [16]) was 4.01%. It also gave a viability at 0.11 µM (HeLa [17]) of 66.4%, an Activity (HeLa [18]) of 2.48% and an Activity (MCF7 [19]) of 38.72%. For the same compound, the Activity (HeLa [20]) was “Active”, the Activity (HepG2 [21]) was “Active” and the Activity (dsDNA [22]) was “Active”. The Activity (dsDNA [23]) was “Tde” and the Activity (UMUC3) was 75%.

With `O=C(CN1C(=O)CN(/N=C/c2ccc([N+](=O)[O-])o2)C1=O)c1ccc(Cl)cc1` the Activity (MCF7 [24]) was “Active”, the Activity (HeLa [25]) was “Active” and the viability at 0.098 µM (HeLa [26]) was 29.8%. For the same compound, the Activity (HepG2 [27]) was 6.31%, the Activity (MCF7 [28]) was 41.73% and the Activity (Caco-2 [29]) was “Active”. The Activity (HepG2 [30]) was “Active”.

Compound `O=c1[nH]cc(F)c(=O)[nH]1` [FLUOROURACIL] has an Activity (Caco-2 [31]) of 6.74%, an Activity (HeLa [32]) of 7.6% and an Activity (MCF7 [33]) of 12%. For the same compound, the Activity (HepG2 [34]) was 12%.
